Like-named read-outs stand apart in the source and are kept apart here.
Columns and labels:
phos-MPM2 marker = assay: Exit from mitosis measured by phos-MPM2 marker after anti-mitotic induced arrest; assay type: cell-based; details: taxane and KSP induced arrest
Protocol: (§1) Single agent Aurora kinase inhibitors require a drug exposure time of 24 hours to induce endoreduplication in asynchronous cells.

cancer cell lines = details: cited from earlier work; for cell growth inhibition in combination with a taxane: VX-680 with taxotere, VE-645 with taxol, AZD1152 with taxol, AACR 2007 abstracts; for synergy with Taxotere: Hoover and Harding 2007
[1] = test system: HCT-116 colon cancer cells; assay: FACS (flow cytometric) analysis of endoreduplication (>4N DNA content) in HCT-116 colon cancer cells; assay type: cell-based; details: for Aurora kinase inhibitor exposure at which endoreduplication was still observed (as little as): after 16 hours 5 nM taxotere pretreatment; for exposure to Aurora kinase inhibitor required to induce endoreduplication (>4N DNA content) or cell death: asynchronous cells, 250 nM VX-680, 1000 nM COMPOUND X, 25 nM COMPOUND Z; for exposure to Aurora kinase inhibitor required to induce endoreduplication (>4N DNA content) or cell death / endoreduplication (>4N DNA content): single agent; for time required for Aurora inhibitor to induce endoreduplication, change after pre-treatment: following 16 hour pre-treatment with nocodazole, 250 nM VX-680, 1000 nM COMPOUND X or COMPOUND Z; for cell cycle distribution after release from anti-mitotic pretreatment: 16 hours pretreatment (5 nM taxotere / 0.4 μg/ml nocodazole), then released into DMSO; for cell cycle distribution after anti-mitotic pretreatment (labeled 0 hours): 16 hours pretreatment, 5 nM taxotere / 0.4 μg/ml nocodazole; for effect of anti-mitotic pre-treatment on the exposure time required for an Aurora kinase inhibitor to induce endoreduplication: 16 hour pre-treatment with the anti-mitotic agent (5 nM taxol, 10-50 nM KSP inhibitors)
Protocol: Asynchronous cells require 24 hour exposure to Aurora kinase inhibitors (such as 250 nM VX-680 or 1000 nM COMPOUND X. (Compound X is disclosed in WO 2008/057512, filed Nov. 6, 2007, Example 4-3 and Claim 70, Example 4-3 and Claim 70 and is shown below and it is represented in Formula H and Table 2, column 2, row 17 of the present application) or 25 nM COMPOUND Z (Compound Z is disclosed in PCT US2008/007295, filed Jun. 11, 2008, Example 76-2 and Claim 25, row 7, column 4 and it is represented in Table 13, compound 76-2 of the present application)) to induce endoreduplication (>4N DNA content) or cell death. For example, HCT-116 colon cancer cells were treated with 1000 nM COMPOUND X or 25 nM COMPOUND Z for the indicated times at which time the drug was washed off and replaced with new media see FIG. 1 and FIG. 8 respectively. Cells were analyzed by FACS after a total of 72 hours.
For example, HCT-116 colon cancer cells were treated with 1000 nM COMPOUND X or 25 nM COMPOUND Z for the indicated times at which time the drug was washed off and replaced with new media see FIG. 2 and FIG. 9 respectively. Cells were analyzed by FACS after a total of 24 hours.
For example, HCT-116 colon cancer cells were treated for 16 hours with DMSO (FIG. 3) or 5 nM taxotere and then exposed to DMSO or 1000 nM COMPOUND X or 25 nM COMPOUND Z for 4, 8, and 24 hours. After 4 or 8 hours, COMPOUND X or COMPOUND Z was washed off and new media was added to the cells. Cells were harvested after 24 hours and analyzed by FACS (see FIG. 4 and FIG. 11 respectively). Following DMSO pretreatment, DMSO had no effect on cell cycle distribution. […] Endoreduplication was observed even when COMPOUND X or COMPOUND Z exposure was as little as 4 hours.
However, following a 16 hour pre-treatment with nocodazole for incrusting, the time required for an Aurora inhibitor (such as 250 nM VX-680 or 1000 nM COMPOUND X or COMPOUND Z) to induce endoreduplication was […]. For example, HCT-116 colon cancer cells were treated for 16 hours with 0.4 μg/ml nocodazole see FIG. 5, and then exposed to DMSO or 1000 nM COMPOUND X or COMPOUND Z for 4, 8 or 24 hours. After 4 or 8 hours, COMPOUND X or COMPOUND Z was washed off and new media was added to the cells. Cells were harvested after 24 hours and analyzed by FACS.
For example, HCT-116 colon cancer cells that were not pretreated, were treated with 5 nM taxotere plus DMSO or 1000 nM COMPOUND X or COMPOUND Z concurrently for 4, 8, or 24 hours. At the indicated time the media was removed and replaced with new media and taxotere was added back into these cells. Cells were harvested after 24 hours and analyzed by FACS see FIG. 6 or FIG. 12 respectively.

[2] = test system: HCT-116 colon cancer cells; assay: as above; assay type: cell-based; details: after 16 hours 10 nM Ispinesib pretreatment; 1000 nM Compound X / 25 nM Compound Z
[3] = test system: phosphorylation of Histone H3 (at serine-10); assay: Inhibition of phosphorylation of Histone H3 (serine-10) stimulated by anti-mitotic agents; assay type: cell-based; details: stimulated by taxanes, KSP inhibitor, and nocodazole
Protocol: as §1

[4] = test system: cells arrested with taxol, monastrol or nocodazole; details: Morrow et al. 2005, Ditchfield et al. 2003, cited from earlier work
[5] = 16 hours 5 nM taxotere pretreatment, then 1000 nM Compound X or 25 nM Compound Z for 4, 8 and 24 hours, FACS at 24 hours
[6] = 16 hours 10 nM Ispinesib (KSP inhibitor) pretreatment, then 1000 nM Compound X or 25 nM Compound Z for 4, 8 and 24 hours, FACS at 24 hours
[7] = 16 hours DMSO pretreatment, then 1000 nM COMPOUND X or 25 nM COMPOUND Z for 4, 8 and 24 hours, FACS at 24 hours
[8] = 16 hours nocodazole (0.4 μg/ml) pretreatment, then 4- or 8-hour exposure to Aurora kinase inhibitor, FACS at 24 hours
[9] = 16 hours nocodazole (0.4 μg/ml) pretreatment, then 24 hour exposure to Aurora kinase inhibitor, FACS at 24 hours
[10] = Aurora kinase inhibitor given at the same time as 5 nM taxotere, 4 hour exposure, FACS at 24 hours
[11] = Aurora kinase inhibitor given at the same time as 5 nM taxotere, no pretreatment
[12] = 1000 nM Compound X / 25 nM Compound Z
[13] = 24 hour exposure, FACS after a total of 24 hours, 250 nM VX-680 / 1000 nM Compound X / 25 nM Compound Z
[14] = drug exposure for 24, 48, or 72 hours, FACS after a total of 72 hours, 1000 nM Compound X / 25 nM Compound Z
[15] = exposure less than 24 hours then drug washed off, FACS after a total of 72 hours, 1000 nM Compound X / 25 nM Compound Z
[16] = exposure less than 24 hours then washed off, FACS after a total of 24 hours, 250 nM VX-680 / 1000 nM Compound X / 25 nM Compound Z

SMILES: CCN(CCCOc1ccc2c(Nc3cc(CC(=O)Nc4cccc(F)c4)n[nH]3)ncnc2c1)CCOP(=O)(O)O [AZD1152, reference compound]
- exit from mitosis, as measured by phos-MPM2 marker (phos-MPM2 marker): accelerated the exit from mitosis
- cell growth inhibition in combination with a taxane (cancer cell lines): showed enhanced cell growth inhibition

SMILES: CSc1cn2c(-c3cn[nH]c3)cnc2c(Nc2cc(C)ns2)n1 [Compound X]
- exit from mitosis, as measured by phos-MPM2 marker (phos-MPM2 marker): accelerated the exit from mitosis
- endoreduplication [1, 5]: induced endoreduplication
- endoreduplication [1, 6]: induced endoreduplication
- endoreduplication [1, 7]: induced endoreduplication, but only when COMPOUND X or COMPOUND Z exposure was 24 hours
- endoreduplication [1, 8]: insufficient to induce endoreduplication
- endoreduplication [1, 9]: induced endoreduplication
- endoreduplication [1, 10]: not sufficient to induce endoreduplication
- exposure needed to induce endoreduplication [1, 11]: 24 h
- Aurora kinase inhibitor exposure at which endoreduplication was still observed (as little as) [1, 12]: ≤ 4 h
- exposure to Aurora kinase inhibitor required to induce endoreduplication (>4N DNA content) or cell death [1]: 24 h
- time required for Aurora inhibitor to induce endoreduplication, change after pre-treatment [1]: not reduced
- endoreduplication (>4N DNA content) [1, 13]: sufficient to induce endoreduplication
- endoreduplication (>4N DNA content) [1, 14]: resulted in the accumulation of cells that underwent endoreduplication
- endoreduplication (>4N DNA content) [1, 15]: insufficient to induce endoreduplication
- endoreduplication (>4N DNA content) [1, 16]: insufficient to induce endoreduplication
- Aurora kinase inhibitor exposure at which endoreduplication was still observed (as little as) [2]: ≤ 4 h
- inhibition of phosphorylation of Histone H3 (at serine-10) [3]: capable of inhibiting phosphorylation of Histone H3

SMILES: CCN(Cc1cc(Nc2nc(C)cn3c(-c4cn[nH]c4)cnc23)sn1)C(C)(C)CO [Compound Z]
- exit from mitosis, as measured by phos-MPM2 marker (phos-MPM2 marker): accelerated the exit from mitosis
- endoreduplication [1, 5]: induced endoreduplication
- endoreduplication [1, 6]: induced endoreduplication
- endoreduplication [1, 7]: induced endoreduplication, but only when COMPOUND X or COMPOUND Z exposure was 24 hours
- endoreduplication [1, 8]: insufficient to induce endoreduplication
- endoreduplication [1, 9]: induced endoreduplication
- endoreduplication [1, 10]: not sufficient to induce endoreduplication
- endoreduplication ([1]; Aurora kinase inhibitor given at the same time as 5 nM taxotere, 4 hour exposure, FACS at 24 hours, listed as COMPOUND Z): not sufficient
- exposure needed to induce endoreduplication [1, 11]: 24 h
- exposure needed to induce endoreduplication ([1]; Aurora kinase inhibitor given at the same time as Ispinesib (KSP inhibitor)): 24 h
- endoreduplication ([1]; Aurora kinase inhibitor given at the same time as Ispinesib (KSP inhibitor), 4 hour exposure): not sufficient to induce endoreduplication
- Aurora kinase inhibitor exposure at which endoreduplication was still observed (as little as) [1, 12]: ≤ 4 h
- exposure to Aurora kinase inhibitor required to induce endoreduplication (>4N DNA content) or cell death [1]: 24 h
- time required for Aurora inhibitor to induce endoreduplication, change after pre-treatment [1]: not reduced
- endoreduplication (>4N DNA content) [1, 13]: sufficient to induce endoreduplication
- endoreduplication (>4N DNA content) ([1]; 24 hour exposure, FACS after a total of 24 hours, 250 nM VX-680 / 1000 nM Compound X / 25 nM Compound Z, listed as COMPOUND Z): resulted in the accumulation of cells that underwent endoreduplication
- endoreduplication (>4N DNA content) [1, 14]: resulted in the accumulation of cells that underwent endoreduplication
- endoreduplication (>4N DNA content) [1, 15]: insufficient to induce endoreduplication
- endoreduplication (>4N DNA content) [1, 16]: insufficient to induce endoreduplication
- Aurora kinase inhibitor exposure at which endoreduplication was still observed (as little as) [2]: ≤ 4 h
- inhibition of phosphorylation of Histone H3 (at serine-10) [3]: capable of inhibiting phosphorylation of Histone H3

SMILES: Cc1cc(Nc2cc(N3CCN(C)CC3)nc(Sc3ccc(NC(=O)C4CC4)cc3)n2)n[nH]1 [MK-0457]
- synergy with Taxotere (cancer cell lines; long-term survival assays): synergy occurred with simultaneous exposure
- synergy with Taxotere (cancer cell lines; short-term viability assays): synergy occurs with sequential and not simultaneous exposure

SMILES: CC(=O)O[C@@]12CO[C@@H]1C[C@H](O)[C@@]1(C)C(=O)[C@H](O)C3=C(C)[C@@H](OC(=O)[C@H](O)[C@@H](NC(=O)OC(C)(C)C)c4ccccc4)C[C@@](O)([C@@H](OC(=O)c4ccccc4)[C@H]21)C3(C)C [Taxotere, docetaxel, reference compound]
- cell cycle distribution after release from anti-mitotic pretreatment [1]: exited mitosis
- cell cycle distribution after anti-mitotic pretreatment (labeled 0 hours) [1]: accumulated in mitosis (4N DNA)

SMILES: Cc1cc(Nc2cc(N3CCN(C)CC3)nc(Sc3ccc(NC(=O)C4CC4)cc3)n2)n[nH]1 [VX-680, reference compound]
- exit from mitosis, as measured by phos-MPM2 marker (phos-MPM2 marker): accelerated the exit from mitosis
- cell growth inhibition in combination with a taxane (cancer cell lines): showed enhanced cell growth inhibition
- exposure to Aurora kinase inhibitor required to induce endoreduplication (>4N DNA content) or cell death [1]: 24 h
- time required for Aurora inhibitor to induce endoreduplication, change after pre-treatment [1]: not reduced
- endoreduplication (>4N DNA content) [1, 13]: sufficient to induce endoreduplication
- endoreduplication (>4N DNA content) [1, 16]: insufficient to induce endoreduplication
- inhibition of phosphorylation of Histone H3 (at serine-10) [3]: capable of inhibiting phosphorylation of Histone H3

SMILES: COc1cc2c(Nc3ccc(NC(=O)c4ccccc4)cc3)ncnc2cc1OCCCN1CCOCC1 [ZM4477439]
- mitotic arrest ([4]; arrest induced by nocodazole): not by nocodazole
- mitotic arrest ([4]; arrest induced by taxol): abrogated mitotic arrest induced by taxol

SMILES: COC(=O)Nc1nc2ccc(C(=O)c3cccs3)cc2[nH]1 [nocodazole, reference compound]
- effect of anti-mitotic pre-treatment on the exposure time required for an Aurora kinase inhibitor to induce endoreduplication [1]: did not result in the same reduction in required exposure time
- cell cycle distribution after release from anti-mitotic pretreatment [1]: exited mitosis
- cell cycle distribution after anti-mitotic pretreatment (labeled 0 hours) [1]: accumulated in mitosis (4N DNA)

SMILES: CC[C@]1(O)C[C@H]2CN(CCc3c([nH]c4ccccc34)[C@@](C(=O)OC)(c3cc4c(cc3OC)N(C=O)[C@H]3[C@@](O)(C(=O)OC)[C@H](OC(C)=O)[C@]5(CC)C=CCN6CC[C@]43[C@@H]65)C2)C1 [vincristine, reference compound]
- effect of anti-mitotic pre-treatment on the exposure time required for an Aurora kinase inhibitor to induce endoreduplication [1]: did not result in the same reduction in required exposure time

From patent US20100249030A1, “ANTI-MITOTIC AGENT AND AURORA KINASE INHIBITOR COMBINATION AS ANTI-CANCER TREATMENT” (Schering Corporation, priority 2007, published 2010)
